Test results: patent US20240034729A9, “HETEROCYCLIC COMPOUND, INTERMEDIATE, PREPARATION METHOD THEREFOR AND APPLICATION THEREOF” (WUHAN LL SCIENCE AND TECHNOLOGY DEVELOPMENT CO., LTD., priority 2018, published 2024)

How the values were obtained:
[1] = In vitro metabolic stability, rat liver microsome; type: in vitro ADME; details: liver microsomes, 1 mg/mL liver microsome protein, 37° C., NA = essentially not metabolized, read-out: T1/2 in rat liver microsome
Method: (§1) The in vitro metabolic stability of the compounds disclosed herein was determined through incubation of liver microsomes of various species. […] At each time point, 100 μL of the reaction mixture was added into a centrifuge tube containing 400 μL of internal standard working solution (containing a 200 ng/mL solution of dexamethasone, diclofenac, tolbutamide and labetalol in acetonitrile) precooled at 0° C. so as to terminate the reaction, and the mixture was then centrifuged at 10,000 g for 10 min at 4° C. The supernatant was collected for LC-MS assay so as to obtain the values of in vitro metabolic half-life of the test compounds in liver microsomes of various species.

[2] = In vitro cytotoxicity assay, CCK-8 method; type: cell-based; details: human, HepG2 cells
Method: In vitro cytotoxicity assay for the compounds disclosed herein was performed in HepG2 cells using the CCK-8 method. HepG2 cells (Beina Bio) in the logarithmic growth phase were collected, the concentration of cell suspension was adjusted, and then the cells were plated on a 96-well cell culture plate at 50,000 cells/well. The cells were then incubated overnight in a cell incubator of 5% […] at 37° C., and after 80-90% cell confluence was achieved, test compounds or vehicle (DMSO) at various concentration gradients were added after medium change. The plate was incubated in a cell incubator of 5% […] at 37° C. for 48 h. After the treatment, the medium in the plate was discarded. The plate was washed twice with PBS, added with CCK-8 working solution (Beyotime) at 100 μL per well, and then incubated at 37° C. for 1.5 h away from light. Absorbance at OD450nm was measured for each well on a microplate reader, and CC50 value of each compound was analyzed and calculated.

[3] = molecular target: hP2X3 (human purinergic P2X receptor subtype 3) (Homo sapiens (Human), UniProt P56373); assay: FLIPR calcium assay, hP2X3 expressed in HEK293 cells; type: cell-based; details: read-out: P2X3 IC50
[4] = In vitro metabolic stability, guinea pig liver microsome; type: in vitro ADME; details: liver microsomes, 1 mg/mL liver microsome protein, 37° C., NA = essentially not metabolized, read-out: T1/2 in guinea pig liver microsome
Method: The in vitro metabolic stability of the compounds disclosed herein was determined through incubation of liver microsomes of various species. A proper amount of test compound was added into a liver microsome reaction system (1 mg/mL liver microsome protein, 25 U/mL glucose-6 phosphate dehydrogenase, 1 mM NADP, 6 mM D-glucose 6-phosphate and 5 mM MgCl2), and then the mixture was incubated in a water bath kettle at 37° C. to start the reaction. At each time point, 100 μL of the reaction mixture was added into a centrifuge tube containing 400 μL of internal standard working solution (containing a 200 ng/mL solution of dexamethasone, diclofenac, tolbutamide and labetalol in acetonitrile) precooled at 0° C. so as to terminate the reaction, and the mixture was then centrifuged at 10,000 g for 10 min at 4° C. The supernatant was collected for LC-MS assay so as to obtain the values of in vitro metabolic half-life of the test compounds in liver microsomes of various species.

[5] = molecular target: hP2X2/3 (heterodimeric receptors formed by human purinergic P2X receptors subtype 2 and subtype 3) (Homo sapiens (Human), UniProt P56373+Q9UBL9); assay: FLIPR calcium assay, hP2X2/3 expressed in HEK293 cells (P2X2/3 receptor selectivity); type: cell-based; details: for IC50: HEK293 cells expressing hP2X2/3, agonist BZ-ATP 5 μM, unit inferred
[6] = In vitro metabolic stability, human liver microsome; type: in vitro ADME; details: liver microsomes, 1 mg/mL liver microsome protein, 37° C., NA = essentially not metabolized, read-out: T1/2 in human liver microsome
Method: as §1

Sequence of hP2X2/3 (heterodimeric receptors formed by human purinergic P2X receptors subtype 2 and subtype 3) (P56373 whole entry): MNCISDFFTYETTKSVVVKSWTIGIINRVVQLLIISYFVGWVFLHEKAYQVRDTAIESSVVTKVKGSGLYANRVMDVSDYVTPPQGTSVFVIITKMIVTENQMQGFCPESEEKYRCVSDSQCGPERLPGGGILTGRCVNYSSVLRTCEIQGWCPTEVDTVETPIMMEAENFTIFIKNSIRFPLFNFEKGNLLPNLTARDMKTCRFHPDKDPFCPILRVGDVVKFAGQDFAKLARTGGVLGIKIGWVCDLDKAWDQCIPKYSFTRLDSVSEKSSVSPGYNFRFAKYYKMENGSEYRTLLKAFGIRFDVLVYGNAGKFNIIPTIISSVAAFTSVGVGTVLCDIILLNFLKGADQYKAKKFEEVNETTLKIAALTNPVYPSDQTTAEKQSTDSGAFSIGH
Sequence of hP2X2/3 (heterodimeric receptors formed by human purinergic P2X receptors subtype 2 and subtype 3) (Q9UBL9 whole entry): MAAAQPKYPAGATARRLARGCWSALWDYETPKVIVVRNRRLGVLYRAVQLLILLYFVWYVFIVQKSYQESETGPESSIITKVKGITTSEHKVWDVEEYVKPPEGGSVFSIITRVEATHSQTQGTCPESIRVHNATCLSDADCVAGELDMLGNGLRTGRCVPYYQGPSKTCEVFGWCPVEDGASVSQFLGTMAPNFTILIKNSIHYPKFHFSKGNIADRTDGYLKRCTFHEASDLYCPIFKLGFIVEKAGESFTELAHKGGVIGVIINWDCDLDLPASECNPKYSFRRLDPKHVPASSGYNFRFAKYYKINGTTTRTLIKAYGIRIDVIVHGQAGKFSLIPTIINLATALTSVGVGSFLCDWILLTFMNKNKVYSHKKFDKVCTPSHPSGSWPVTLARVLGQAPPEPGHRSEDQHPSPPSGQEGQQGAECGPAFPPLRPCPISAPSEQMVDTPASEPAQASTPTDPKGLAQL
Sequence of hP2X3 (human purinergic P2X receptor subtype 3) (P56373 whole entry): as the sequence (P56373 whole entry) above

| half-life [4] [h] | SMILES | half-life [1] [h] | CC50 at 48 h [2] [µM] | IC50 [3] [µM] | Folds of selectivity [5] | IC50 [5] [µM] | half-life [6] [h] |
| --- | --- | --- | --- | --- | --- | --- | --- |
| – | COC(=O)N1CCO[C@@H](Cc2c(-c3ccc(S(N)(=O)=O)cc3C(F)(F)F)nc3cc(C)ccn23)C1 [Compound 189, methyl (S)-2-((7-methyl-2-(4-sulfamoyl-2-(trifluoromethyl)phenyl)imidazo[1,2-a]pyridin-3-yl)methyl)morpholine-4-carboxylate] | – | – | 0.01 | – | – | 2.41 |
| – | CC(=O)N1CCO[C@@H](Cc2c(-c3c(F)cc(-c4ncco4)cc3F)nc3cc(Cl)ccn23)C1 [Compound 159, (S)-1-(2-((7-chloro-2-(2,6-difluoro-4-(oxazol-2-yl)phenyl)imidazo[1,2-a]pyridin-3-yl)methyl)morpholino)ethan-1-one] | – | > 100 | – | – | – | – |
| 0.0375 | COC(=O)N1CCO[C@@H](Cc2c(-c3c(F)cc(-c4cccn4C)cc3F)nc3cc(C)ccn23)C1 [Compound 13, methyl (S)-2-((2-(2,6-difluoro-4-(1-methyl-1H-pyrrol-2-yl)phenyl)-7-methylimidazo[1,2-a]pyridin-3-yl)methyl)morpholine-4-carboxylate] | 0.0373 | 66.5 | – | – | – | 1.03 |
| 0.126 | COC(=O)N1CCO[C@@H](Cc2c(-c3c(F)cc(-c4cccs4)cc3F)nc3cc(C)ccn23)C1 [Compound 12, methyl (S)-2-((2-(2,6-difluoro-4-(thiophen-2-yl)phenyl)-7-methylimidazo[1,2-a]pyridin-3-yl)methyl)morpholine-4-carboxylate] | 0.13 | 52.7 | – | – | – | 1.53 |
| – | CC(=O)Nc1cc(F)c(-c2nc3cc(C)ccn3c2C[C@H]2CN(C(C)=O)CCO2)c(F)c1 [Compound 167, (S)—N-(4-(3-((4-acetylmorpholin-2-yl)methyl)-7-methylimidazo[1,2-a]pyridin-2-yl)-3,5-difluorophenyl)acetamide] | – | > 100 | – | – | – | – |
| – | CC(=O)N1CCO[C@@H](Cc2c(-c3c(F)cc(-c4ncco4)cc3F)nc3cc(C)ccn23)C1 [Compound 163, (S)-1-(2-((2-(2,6-difluoro-4-(oxazol-2-yl)phenyl)-7-methylimidazo[1,2-a]pyridin-3-yl)methyl)morpholino)ethan-1-one] | – | > 100 | – | – | – | – |
| 0.0712 | COC(=O)N1CCO[C@@H](Cc2c(-c3c(F)cc(-c4ccco4)cc3F)nc3cc(C)ccn23)C1 [Compound 11, methyl (S)-2-((2-(2,6-difluoro-4-(furan-2-yl)phenyl)-7-methylimidazo[1,2-a]pyridin-3-yl)methyl)morpholine-4-carboxylate] | 0.0942 | 79.4 | – | – | – | 2.52 |
| – | COC(=O)N1CCO[C@@H](Cc2c(-c3c(F)cc(S(N)(=O)=O)cc3Cl)nc3cc(C)ccn23)C1 [Compound 177, methyl (S)-2-((2-(2-chloro-6-fluoro-4-sulfamoylphenyl)-7-methylimidazo[1,2-a]pyridin-3-yl)methyl)morpholine-4-carboxylate] | – | – | 0.0011 | – | – | 5.41 |
| 0.794 | COC(=O)N1CCO[C@@H](Cc2c(-c3c(F)cc(-n4ccnc4)cc3F)nc3cc(C)ccn23)C1 [Compound 5, methyl (S)-2-((2-(2,6-difluoro-4-(1H-imidazol-1-yl)phenyl)-7-methylimidazo[1,2-a]pyridin-3-yl)methyl)morpholine-4-carboxylate] | 0.622 | 72 | – | – | – | 10.8 |
| 0.225 | COC(=O)N1CCO[C@@H](Cc2c(-c3c(F)cc(-c4ncco4)cc3F)nc3cc(C)ccn23)C1 [Compound 10, methyl (S)-2-((2-(2,6-difluoro-4-(oxazol-2-yl)phenyl)-7-methylimidazo[1,2-a]pyridin-3-yl)methyl)morpholine-4-carboxylate] | 0.513 | 15.8 | – | – | – | 3.71 |
| – | CC(=O)N1CCO[C@@H](Cc2c(-c3c(F)cc(-n4ccnc4)cc3F)nc3cc(Cl)ccn23)C1 [Compound 158, (S)-1-(2-((7-chloro-2-(2,6-difluoro-4-(1H-imidazol-1-yl)phenyl)imidazo[1,2-a]pyridin-3-yl)methyl)morpholino)ethan-1-one] | – | > 100 | < 0.01 | A (key: A: folds of selectivity >1000; B: 200< folds of selectivity ≤1000; C: folds of selectivity ≤200) | > 60 | – |
| – | COC(=O)N1CCO[C@@H](Cc2c(-c3ccc(S(N)(=O)=O)cc3Cl)nc3cc(Cl)ccn23)C1 [Compound 178, methyl (S)-2-((7-chloro-2-(2-chloro-4-sulfamoylphenyl)imidazo[1,2-a]pyridin-3-yl)methyl)morpholine-4-carboxylate] | – | – | 0.0001 | – | – | 20.6 |
| – | COC(=O)N1CCO[C@@H](Cc2c(-c3c(F)cc(NC(=O)CCC(=O)O)cc3F)nc3cc(C)ccn23)C1 [Compound 25, (S)-4-((3,5-difluoro-4-(3-((4-(methoxycarbonyl)morpholin-2-yl)methyl)-7-methylimidazo[1,2-a]pyridin-2-yl)-phenyl)-amino)-4-oxobutanoic acid] | 3.8 | > 100 | < 0.01 | A (key: A: folds of selectivity >1000; B: 200< folds of selectivity ≤1000; C: folds of selectivity ≤200) | > 60 | 4.97 |
| – | CC(=O)N1CCO[C@@H](Cc2c(-c3c(F)cc(-n4cccn4)cc3F)nc3cc(Cl)ccn23)C1 [Compound 160, (S)-1-(2-((7-chloro-2-(2,6-difluoro-4-(1H-pyrazol-1-yl)phenyl)imidazo[1,2-a]pyridin-3-yl)methyl)morpholino)ethan-1-one] | – | > 100 | – | – | – | – |
| – | CC(=O)N1CCO[C@@H](Cc2c(-c3c(F)cc(-c4nnc[nH]4)cc3F)nc3cc(Cl)ccn23)C1 [Compound 166] | – | > 100 | < 0.01 | A (key: A: folds of selectivity >1000; B: 200< folds of selectivity ≤1000; C: folds of selectivity ≤200) | > 60 | – |

| SMILES | half-life [4] [h] | half-life [1] [h] | CC50 at 48 h [2] [µM] | IC50 [3] [µM] | Folds of selectivity [5] | IC50 [5] [µM] | half-life [6] [h] |
| --- | --- | --- | --- | --- | --- | --- | --- |
| CC(=O)N1CCO[C@@H](Cc2c(-c3c(F)cc(S(N)(=O)=O)cc3F)nc3cc(C)ccn23)C1 [Compound 173, (S)-4-(3-((4-acetylmorpholin-2-yl)methyl)-7-methylimidazo[1,2-a]pyridin-2-yl)-3,5-difluorobenzenesulfonamide] | 10.8 | 1.69 | > 200 | 0.0018 | 18811 | 33.9 | – |
| COC(=O)N1CCO[C@@H](Cc2c(-c3ccc(S(N)(=O)=O)cc3C)nc3cc(C)ccn23)C1 [Compound 184, methyl (S)-2-((7-methyl-2-(2-methyl-4-sulfamoylphenyl)imidazo[1,2-a]pyridin-3-yl)methyl)morpholine-4-carboxylate] | 2.89 | 0.0943 | > 200 | 0.0056 | – | – | 406 |
| CC(=O)N1CCO[C@@H](Cc2c(-c3c(F)cc(S(N)(=O)=O)cc3F)nc3cc(Cl)ccn23)C1 [Compound 174, (S)-4-(3-((4-acetylmorpholin-2-yl)methyl)-7-chloroimidazo[1,2-a]pyridin-2-yl)-3,5-difluorobenzenesulfonamide] | 18.5 | 6.64 | > 200 | 0.0016 | – | – | – |
| COC(=O)N1CCO[C@@H](Cc2c(-c3c(F)cc(S(C)(=O)=O)cc3F)nc3cc(C)ccn23)C1 [Compound 175, methyl (S)-2-((2-(2,6-difluoro-4-(methylsulfonyl)phenyl)-7-methylimidazo[1,2-a]pyridin-3-yl)methyl)morpholine-4-carboxylate] | > 0.5 | > 0.5 | – | > 10 | – | – | > 0.5 |
